Patent publication US20140093550A1 (priority 2012, published 2014)

Assays:
[1] = system: Legionella pneumophila biofilm; format: cell-based, Legionella pneumophila strain Philadelphia 1 (ATCC 33152); conditions: 5 days post-treatment after 7 days of treatment (Example 7 biofilms)
[2] = system: Legionella pneumophila biofilm; format: cell-based, Legionella pneumophila strain Philadelphia 1 (ATCC 33152); conditions: 7 days; nanoparticles 1 microgram/milliliter, chlorine dioxide 0.1 ppm

[O][Cl+][O-] [chlorine dioxide biocide, chlorine dioxide]
fold increase in biomass on day 12 [1]: ~1.25 fold | biomass of biofilm after treatment (Example 7, FIG. 14) [2]: about 0.5 micrometers^3/micrometers^2
